In PubChem BioAssay (NCI):
Values joined by “and” are separate entries in the source; they are usually repeats but may differ in a detail not shown here. Equal values may be shown once.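 Step 1: Grow cells in 96-well plates. Step 2: Expose to compound for 48 hours at 5 concentrations. Step 3: Interpolate endpoints linearly; if unreached, use highest concentration. GI50 = concentration required for 50% inhibition of growth. At the TGI there is no net growth.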

How the values were obtained:
Assay in all cases: NCI-60 cell line screen, 48 h
IGROV1 ovarian = test system: IGROV1 ovarian
SK-OV-3 ovarian = test system: SK-OV-3 ovarian
SNB-75 CNS = test system: SNB-75 CNS
HCC-2998 colon = test system: HCC-2998 colon
CAKI-1 renal = test system: CAKI-1 renal
ACHN renal = test system: ACHN renal
OVCAR-4 ovarian = test system: OVCAR-4 ovarian
EKVX NSCLC = test system: EKVX NSCLC
SF-539 CNS = test system: SF-539 CNS
MALME-3M melanoma = test system: MALME-3M melanoma

Structure (SMILES) | TGI (IGROV1 ovarian) | TGI (SK-OV-3 ovarian) | TGI (SNB-75 CNS) | TGI (HCC-2998 colon) | TGI (CAKI-1 renal) | TGI (ACHN renal) | TGI (OVCAR-4 ovarian) | TGI (EKVX NSCLC) | TGI (SF-539 CNS) | TGI (MALME-3M melanoma) | GI50 (IGROV1 ovarian) | GI50 (SK-OV-3 ovarian) | GI50 (SNB-75 CNS) | GI50 (HCC-2998 colon) | GI50 (CAKI-1 renal) | GI50 (ACHN renal) | GI50 (OVCAR-4 ovarian) | GI50 (EKVX NSCLC) | GI50 (SF-539 CNS) | GI50 (MALME-3M melanoma)
CC1=C(C)C(=O)O[C@@H]([C@](C)(O)[C@]2(O)CC[C@@]3(O)[C@@H]4C[C@H](O)[C@]5(O)[C@@H](O)C=CC(=O)[C@]5(C)[C@H]4CC[C@]23C)C1 | > 100 µM | > 100 µM | > 100 µM | > 100 µM | > 100 µM | > 100 µM | > 100 µM | > 100 µM | > 100 µM | > 100 µM |  |  |  |  |  |  |  |  |  | 
C#Cc1cccc(Nc2ncnc3ccc(OCCCCNCCS(C)(=O)=O)cc23)c1 | > 16.3 µM | > 25 µM | > 25 µM | > 25 µM | > 25 µM | > 25 µM | > 25 µM | > 25 µM | 8.72 µM | 9.47 µM | 2.12 µM | 1.28 µM | 10.7 µM | 7.83 µM | 2.79 µM | 0.945 µM | 9.55 µM | 0.161 µM | 4.49 µM | 4.88 µM
COc1cc(N2C(=O)[C@H](c3ccccc3)C2c2ccc(SC)cc2)cc(OC)c1OC (some centres undefined) | > 100 µM | > 100 µM | > 100 µM | > 100 µM | > 100 µM | > 100 µM | > 100 µM | > 100 µM | 0.0697 µM | > 100 µM | 0.0432 µM | 0.0676 µM | 0.04 µM | 0.0438 µM | 0.0463 µM | 0.0454 µM | 0.0545 µM | 0.0513 µM | 0.0255 µM | > 100 µM
O=C(NCCCl)Nc1cccnc1 | 35.6 µM | 43.5 µM | 63.1 µM | 37.5 µM | 36.1 µM | 27.4 µM | 90.7 µM | 38.3 µM | > 100 µM | 7.4 µM |  |  |  |  |  |  |  |  |  | 
CC(C)(C)c1cc(NC(=O)Nc2ccc(-c3cn4c(n3)sc3cc(OCCN5CCOCC5)ccc34)cc2)no1 | 25.7 µM and 15.7 µM and > 10 µM | 22.4 µM and 19.2 µM and > 10 µM | 6.52 µM and 19.1 µM and > 10 µM | 61.5 µM and 52.3 µM and > 10 µM | 31.9 µM and 15.3 µM and > 10 µM | 18.1 µM and 13.2 µM and > 10 µM | 15.8 µM and 5.96 µM and > 10 µM | 34.9 µM and 21.6 µM and > 10 µM | 15.4 µM and 1.65 µM and > 10 µM | 14.7 µM and 13.3 µM and > 10 µM | 9.38 µM and 2.33 µM and > 10 µM | 7.33 µM and 5.07 µM and > 10 µM | 1.41 µM and 2.38 µM and 1.94 µM | 14.1 µM and 11.7 µM and 7.03 µM | 10.9 µM and 2.6 µM and 6.93 µM | 3.48 µM and 1.22 µM and 8.06 µM | 4.61 µM and 1.38 µM and 3.38 µM | 13 µM and 4.34 µM and > 10 µM | 0.698 µM and 0.303 µM and 0.623 µM | 2.62 µM and 1.59 µM and 6.17 µM
O=C(Cc1nc2ccccc2o1)C(=O)Nc1cccc(Cl)c1 | > 100 µM | > 100 µM | > 100 µM | > 100 µM | > 100 µM | > 100 µM | > 100 µM | > 100 µM | > 100 µM | > 100 µM |  |  |  |  |  |  |  |  |  | 
O=C(/C=C/c1ccccc1O)c1ccc([N+](=O)[O-])cc1 | 26.3 µM | 70.7 µM | 31.6 µM | 30.1 µM | 39.1 µM | 26.4 µM | 25.1 µM | 43.4 µM | 29.2 µM | > 100 µM |  |  |  |  |  |  |  |  |  | 
CCOC(=O)C1=C(C)NC(=O)NC1CN1C(=O)c2ccccc2C1=O (centres undefined) | > 100 µM | > 100 µM | > 100 µM | > 100 µM | > 100 µM | > 100 µM | > 100 µM | > 100 µM | > 100 µM | > 100 µM | > 100 µM | > 100 µM | > 100 µM | > 100 µM | > 100 µM | > 100 µM | > 100 µM | > 100 µM | > 100 µM | > 100 µM
CSc1nc2nn(Cc3ccccc3)cc2c(=O)[nH]1 | > 100 µM | > 100 µM | > 100 µM | > 100 µM | > 100 µM | > 100 µM | > 100 µM | > 100 µM | > 100 µM | > 100 µM |  |  |  |  |  |  |  |  |  | 
CC(C)(C)c1cc(/C=N/NC(=O)c2ccccc2NC(=O)c2cccs2)c(O)c(C(C)(C)C)c1 | > 100 µM | > 100 µM | > 100 µM | 30.1 µM | > 100 µM | 19.2 µM | 5.97 µM | > 100 µM | 22.1 µM | 26.7 µM | 0.683 µM | 1.29 µM | 13.1 µM | 0.88 µM | 0.536 µM | 0.413 µM | 0.193 µM | 0.365 µM | 1.93 µM | 2.11 µM
O=C(CCc1ccccc1)NS(=O)(=O)c1ccccc1 | > 100 µM | > 100 µM | > 100 µM | > 100 µM | > 100 µM | > 100 µM | > 100 µM | > 100 µM | > 100 µM | > 100 µM |  |  |  |  |  |  |  |  |  | 
CCOc1ccc(/C=C/c2cc(OC)c(OC)c(OC)c2)cc1 | > 93.8 µM | > 30.2 µM | > 64.1 µM | 6.32 µM | 24.1 µM | > 64.8 µM | > 100 µM | > 100 µM | 3.02 µM | 28.8 µM |  |  |  |  |  |  |  |  |  | 
Cn1c2c(c3ccccc31)CCN(CCCCN1CCN(c3ccccc3)CC1)C2=O | > 100 µM | > 100 µM | > 100 µM | 31.7 µM | 98.5 µM | > 100 µM | > 100 µM | > 71.9 µM | > 100 µM | 30.9 µM |  |  |  |  |  |  |  |  |  | 
C=C1C(=O)O[C@H]2[C@H](OC(C)=O)[C@@H](C)CCCC3(C)OC3CCC3(CO3)[C@H](O)C[C@@H]12 (some centres undefined) | 38.7 µM | 62 µM | > 100 µM | 7.21 µM | 27.8 µM | 22.3 µM | 53.8 µM | 30.3 µM | 37.1 µM | 21.6 µM | 13.9 µM | 21.2 µM | 47 µM | 1.99 µM | 12.1 µM | 10.4 µM | 3.77 µM | 12.1 µM | 15.4 µM | 6.01 µM
CC1(C)N=C(N)N=C(N)N1c1ccc(OCCCNC(=O)Nc2cccc(S(=O)(=O)F)c2)c(Cl)c1 | > 100 µM | > 100 µM | > 100 µM | > 100 µM | > 100 µM | > 100 µM | > 100 µM | > 100 µM | > 100 µM | > 100 µM | 0.448 µM | 86.2 µM | 2.73 µM | 8.55 µM | 30.3 µM | 15.7 µM | > 100 µM | 20.3 µM | 4.78 µM | 42.8 µM
CCN(CC)CC(C)C(=O)/C=C/c1ccc(C)cc1 (centres undefined) | 4.86 µM | 30.7 µM | 3.17 µM | 9.28 µM | 2.49 µM | 4.36 µM | 4.26 µM | 26.8 µM | 3.85 µM | 7.08 µM |  |  |  |  |  |  |  |  |  | 
O=C(c1ccc(C(F)(F)F)c(Cl)c1)N(Cc1ccc(Cl)cc1)c1ccc(-c2cc(C(F)(F)F)[nH]n2)c(O)c1 | 2.13 µM | 4.89 µM | 3.24 µM | 4.63 µM | 3.04 µM | 4.05 µM | 4.87 µM | 4.57 µM | 2.09 µM | 2.36 µM | 0.887 µM | 1.37 µM | 0.989 µM | 1.43 µM | 1.01 µM | 1.24 µM | 1.08 µM | 1.3 µM | 0.994 µM | 0.941 µM
c1ccncc1 | > 100 µM | > 100 µM | > 100 µM | > 100 µM | > 100 µM | > 100 µM | > 100 µM | > 100 µM | > 100 µM | > 100 µM |  |  |  |  |  |  |  |  |  | 
NS(=O)(=O)c1ccc(NC(=O)Cc2nc3ccccc3s2)cc1 | 29.9 µM | 40.5 µM | 30.4 µM | 35.8 µM | 30.5 µM | 29.3 µM | 34.9 µM | 37.2 µM | 32.3 µM | 30.3 µM |  |  |  |  |  |  |  |  |  | 
COc1cc(/C=C/c2cc(/C=C/c3ccc(O)c(OC)c3)n(C(=O)Nc3ccccc3Cl)n2)ccc1O | 2.39 µM | 2.35 µM | 0.959 µM | 5.72 µM | 1.21 µM | 5.35 µM | 9.09 µM | 3.84 µM | 1.58 µM | 2.01 µM | 0.485 µM | 0.401 µM | 0.259 µM | 0.725 µM | 0.222 µM | 0.344 µM | 0.722 µM | 0.671 µM | 0.352 µM | 0.539 µM
CC1(C)N=C(N)N=C(N)N1c1ccc(Cl)cc1 | > 100 µM | > 100 µM | > 100 µM | 11.1 µM | > 100 µM | > 100 µM | > 100 µM | > 100 µM | > 100 µM | > 100 µM | 2.27 µM | 43 µM | 8.16 µM | 2.01 µM | > 100 µM | 9.55 µM | 14.9 µM | 0.763 µM | 1.94 µM | 16.1 µM
N#CCC(=O)N/N=C1/C(=O)N(c2cc(Cl)ccc2Cl)C(=O)C(=O)C1c1nc2ccccc2s1 (centres undefined) | > 100 µM | > 100 µM | > 100 µM | > 100 µM | 94.4 µM | > 100 µM | > 100 µM | > 100 µM | > 100 µM | > 100 µM |  |  |  |  |  |  |  |  |  | 
Oc1c(Cl)cc(Cl)cc1/C=N/Nc1nnc(N/N=C/c2cc(Cl)cc(Cl)c2O)c2ccccc12 | > 100 µM | > 81.7 µM | > 31.1 µM | > 100 µM |  | > 100 µM | > 100 µM | > 100 µM | 0.64 µM | > 100 µM | 0.419 µM | 0.563 µM | 0.867 µM | 0.469 µM | 0.643 µM | 0.394 µM | 0.388 µM | 0.429 µM | 0.258 µM | 0.68 µM
